Key:
[1] = test system: 231MFP cells; experiment: WST-8 cell viability assay; assay type: cell-based
Description: WST-8 Cell Viability Assay of Cells Treated with NAIA-4 or IAA
231MFP cells were plated on 96-well plates (Corning, 3904) at 30,000 cells per well and allowed to grow in complete medium overnight. The cells were then incubated with DMSO solvent control, NAIA-4 or IAA at indicated concentrations for 2 h. The solution was replaced with new culture medium containing 10 μL of WST-8 solution (Abcam; ab228554) and incubated for 2 h in dark at 37° C. Cell viability were then assayed by the absorption at 460 nm on SpectraMax i3 (Molecular Devices).

[2] = Stability in aqueous buffer solution over time (LC-MS); assay type: physicochemical
Description: Stability of NAIA-5 in Aqueous Buffer Solution Over Time
NAIA-5 (10 μM) was dissolved in PBS/MeOH solution mixture (4:1, v/v; 500 μL) and stay at room temperature. At predetermined time intervals, an aliquot of the reaction mixture (10 μL) was sent for LC-MS analysis on Waters Autopurification System using a SunFire C18 HPLC column (50×4.6 mm with 5 μm diameter particles, Waters). Separation was achieved by gradient elution from 5% to 100% MeCN in water (constant 0.1 vol % formic acid) over 4 min, isocratic elution with 100% MeCN (with 0.1 vol % formic acid) from 4 to 8 min and returning to 5% MeCN in water (with 0.1 vol % formic acid) and equilibrated for 2 min. Selected ion chromatograms, with m/z=325 corresponding to [NAIA-5+H]^+, were extracted and analyzed by integrating the area under curve.
As fast-reacting probes are often susceptible to hydrolysis, we sought to investigate the aqueous stability of NAIA-C5 amide. […] Taking the excellent reaction kinetics and a mere 14% degradation in 30 min into account, NAIA-C5 amide was considered to be a useful tool in cysteine profiling (FIG. 17C and FIG. 17F).

[3] = test system: HepG2 cell lysates; experiment: MS-based ABPP to identify liganded cysteines in HepG2 cell lysates; assay type: biochemical, human; conditions: 10 μM, 1 h
Description: MS-Based ABPP Experiments to Identify Liganded Cysteines in HepG2 Cell Lysates by NAIA-5 or IAA.
HepG2 cells were lysed in PBS by sonication. After BCA assay and protein normalization, HepG2 cell lysates in PBS (2 mg/mL, 2 mL) were incubated with NAIA-5 and IAA (10 μM), respectively, at room temperature for 1 h with vortexing. Then, the samples were incubated with a master mix solution for CuAAC reaction, containing CuSO4, TBTA, DTB-PEG-azide and TECP (final concentrations are 1 mM, 100 μM, 100 μM and 1 mM respectively). After incubation at room temperature for 1 h with vortexing, pre-chilled acetone (12 mL) was added to the samples and proteins were allowed to precipitate out by storing at −20° C. overnight. The samples were centrifuged at 5,000 g at 4° C. for 10 min, and the supernatant was discarded. The protein pellets labeled by NAIA-5 and IAA were then combined and washed with pre-chilled methanol twice. The protein pellets were then re-dispersed in 1.2% SDS in PBS (w/v), followed by heating at 80° C. for 5 min. Any insoluble solids were discarded by centrifugation at 6,500 g for 5 min, and the supernatant were transferred to PBS solution containing Pierce™ Streptavidin Agarose beads (20349; Thermo Scientific) with final concentration of SDS equal to 0.2% (w/v). The samples and beads were incubated at 4° C. with rotation overnight. […]

Row | time stable in PBS solution ([2]; pH 7.4, absence of Cys) [h] | SMILES | cytotoxicity (in words) [1] | change of compound level in aqueous buffer solution over time (in words) ([2]; 10 μM, PBS/MeOH 4:1, room temperature) | off-target labeling onto other amino acids [3]
1 | – | C#CCCCCNC(=O)CI [IAA, N-Hex-5-ynyl-2-iodoacetamide, reference compound] | high cellular cytotoxicity | – | –
2 | ≥ 3 | C#CCCCCNC(=O)COc1ccc2c(ccn2C(=O)C=C)c1 [NAIA-5] | – | No significant changes in NAIA-5 level in the aqueous buffer solution over time | less undesired off-target labeling onto other amino acids as compared to IAA
